Source: publication PMC3463757 (2012)

Assays:
[1] = target: ROCK2 (Homo sapiens, UniProt O75116); test: Invitrogen Z-Lyte FRET kinase assay, […] peptide substrate; type: biochemical
[2] = target: ROCK1 (Homo sapiens, UniProt Q13464); test: as above; type: biochemical
ROCK1, sequence (Q13464 2-1354): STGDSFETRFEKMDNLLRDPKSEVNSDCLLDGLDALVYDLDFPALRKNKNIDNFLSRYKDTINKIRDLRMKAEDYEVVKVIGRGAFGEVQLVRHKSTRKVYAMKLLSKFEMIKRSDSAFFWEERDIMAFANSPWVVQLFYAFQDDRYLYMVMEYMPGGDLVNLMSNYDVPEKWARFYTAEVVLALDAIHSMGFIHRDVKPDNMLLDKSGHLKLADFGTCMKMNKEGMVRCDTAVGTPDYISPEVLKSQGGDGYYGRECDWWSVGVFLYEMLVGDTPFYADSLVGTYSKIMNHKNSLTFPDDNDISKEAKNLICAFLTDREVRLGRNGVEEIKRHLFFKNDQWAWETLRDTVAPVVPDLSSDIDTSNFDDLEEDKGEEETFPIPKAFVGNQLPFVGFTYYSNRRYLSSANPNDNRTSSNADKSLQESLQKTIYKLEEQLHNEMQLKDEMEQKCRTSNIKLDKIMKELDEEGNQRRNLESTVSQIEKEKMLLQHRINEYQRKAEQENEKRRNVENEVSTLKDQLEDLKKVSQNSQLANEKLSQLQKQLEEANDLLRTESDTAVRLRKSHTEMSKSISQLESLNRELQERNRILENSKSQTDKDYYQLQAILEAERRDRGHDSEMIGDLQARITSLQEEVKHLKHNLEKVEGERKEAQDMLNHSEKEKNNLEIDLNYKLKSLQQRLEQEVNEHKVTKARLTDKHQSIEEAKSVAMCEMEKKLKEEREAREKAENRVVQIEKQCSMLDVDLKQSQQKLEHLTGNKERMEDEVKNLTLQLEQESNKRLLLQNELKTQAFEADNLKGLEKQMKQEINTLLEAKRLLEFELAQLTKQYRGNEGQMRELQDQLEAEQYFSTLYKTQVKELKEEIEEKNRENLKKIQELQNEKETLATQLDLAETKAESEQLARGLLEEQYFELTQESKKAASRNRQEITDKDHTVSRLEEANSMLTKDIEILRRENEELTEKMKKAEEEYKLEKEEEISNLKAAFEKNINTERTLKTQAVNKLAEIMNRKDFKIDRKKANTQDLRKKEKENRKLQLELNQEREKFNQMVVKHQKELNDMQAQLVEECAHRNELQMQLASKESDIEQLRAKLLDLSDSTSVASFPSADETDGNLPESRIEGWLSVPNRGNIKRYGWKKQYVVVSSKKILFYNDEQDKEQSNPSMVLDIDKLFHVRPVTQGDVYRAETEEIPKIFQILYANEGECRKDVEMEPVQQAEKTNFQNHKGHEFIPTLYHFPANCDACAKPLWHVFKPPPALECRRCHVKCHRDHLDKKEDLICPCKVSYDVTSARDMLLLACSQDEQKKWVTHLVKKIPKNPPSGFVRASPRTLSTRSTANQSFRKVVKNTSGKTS

ROCK2, sequence (O75116 whole entry): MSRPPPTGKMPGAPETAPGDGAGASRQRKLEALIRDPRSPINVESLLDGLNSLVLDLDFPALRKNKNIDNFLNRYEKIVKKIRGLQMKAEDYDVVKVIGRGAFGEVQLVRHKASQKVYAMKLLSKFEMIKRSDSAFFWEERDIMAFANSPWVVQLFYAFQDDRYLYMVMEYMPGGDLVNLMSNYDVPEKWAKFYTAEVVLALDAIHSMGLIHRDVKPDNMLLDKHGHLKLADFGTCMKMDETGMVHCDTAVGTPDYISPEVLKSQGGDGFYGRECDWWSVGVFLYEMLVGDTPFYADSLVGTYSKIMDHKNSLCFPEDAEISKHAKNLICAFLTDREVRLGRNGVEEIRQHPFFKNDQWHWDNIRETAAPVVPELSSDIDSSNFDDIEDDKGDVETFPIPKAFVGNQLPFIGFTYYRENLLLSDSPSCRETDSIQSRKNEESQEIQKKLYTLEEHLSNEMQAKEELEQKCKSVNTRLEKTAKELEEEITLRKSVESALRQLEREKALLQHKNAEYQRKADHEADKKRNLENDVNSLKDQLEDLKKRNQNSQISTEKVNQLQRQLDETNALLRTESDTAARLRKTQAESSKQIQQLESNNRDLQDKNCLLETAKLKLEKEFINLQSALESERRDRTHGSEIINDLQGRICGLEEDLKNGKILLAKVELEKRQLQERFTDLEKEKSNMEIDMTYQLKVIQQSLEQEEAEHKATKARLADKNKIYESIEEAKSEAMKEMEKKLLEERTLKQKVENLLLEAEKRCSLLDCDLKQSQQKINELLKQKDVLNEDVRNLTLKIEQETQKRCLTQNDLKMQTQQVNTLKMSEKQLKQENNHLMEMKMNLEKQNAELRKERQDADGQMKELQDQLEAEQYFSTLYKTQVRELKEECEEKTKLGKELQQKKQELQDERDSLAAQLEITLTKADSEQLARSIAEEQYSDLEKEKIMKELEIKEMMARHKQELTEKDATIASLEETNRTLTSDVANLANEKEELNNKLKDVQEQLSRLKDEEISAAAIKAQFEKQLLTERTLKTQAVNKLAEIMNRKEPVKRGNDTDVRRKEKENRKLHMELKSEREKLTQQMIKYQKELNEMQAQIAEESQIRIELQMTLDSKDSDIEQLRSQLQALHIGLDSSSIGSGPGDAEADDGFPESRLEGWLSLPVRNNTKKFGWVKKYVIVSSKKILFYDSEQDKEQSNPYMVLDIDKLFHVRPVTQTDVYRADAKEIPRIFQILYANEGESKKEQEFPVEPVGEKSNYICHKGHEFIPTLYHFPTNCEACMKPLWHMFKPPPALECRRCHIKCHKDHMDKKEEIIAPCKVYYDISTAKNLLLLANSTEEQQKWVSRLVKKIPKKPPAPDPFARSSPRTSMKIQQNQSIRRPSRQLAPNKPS

## RKI-1313
[1]
  IC50: 8 µM
[2]
  IC50: 34 µM
